Holding throughout (format): biochemical
Experiment [1] concerns the target T1, cathepsin B enzyme from human liver (Homo sapiens, UniProt P07858).
T1 construct: from human liver; purchased Millipore; host or cells: human liver
The experiment is described as follows: Fluorometric kinetic enzyme assay, cathepsin B (Cbz-Arg-Arg-AMC).

For experiment [2], the target named is T2, human 20S proteasome T-L activity (Homo sapiens, UniProt Q99436).
T2 construct: human RBC proteasome was purchased from South Bay Bio; purchased South Bay Bio; host or cells: human red blood cells
The experiment is described as follows: Fluorometric kinetic enzyme assay, 20S proteasome T-L activity (Ac-RLR-AMC). Here is the method:
(§1) Fluorometric kinetic enzyme inhibition assays (for details, see Supporting Information) were performed for the ChT-L activity of the constitutive 20S proteasome to compare IC50 values for 5 with linear analogue 6, unoxidized macrocycles 15a and 15b, and macrocyclic C-terminal amide 12 (Table 1). Furthermore, inhibition of the 20S proteasomal ChT-L activity was compared with T-L and PGPH-L activities and with inhibition of serine protease chymotrypsin and cysteine proteases cathepsin B and m-calpain.
(§2) 6. In Vitro Kinetic Enzyme Assays
(§3) The inhibitory potency and selectivity of the final compounds were tested using in vitro fluorescent enzyme kinetics. The enzyme assays used the fluorogenic substrate Suc-Leu-Leu-Val-Tyr-AMC (Suc-LLVY-AMC) and either the human 20S proteasome or alternate proteases chymotrypsin, m-calpain and cathepsin B. For cathepsin B, Cbz-Arg-Arg-AMC was used as the fluorogenic substrate. Kinetic enzyme assays were carried out on a fluorescent 96-well plate reader and AMC-substrate hydrolysis was measured at 353 nm excitation and 442 nm emission. Wells with inhibitor and wells with control solution were run in tandem. Vi and v0 were calculated from the slope of the measured relative fluorescent units (RFUs) graphed against time for inhibitor and control wells, respectively. Values for vi /v0 were plotted as a function of inhibitor concentration with GraphPad Prism and IC50 values were calculated from a nonlinear regression analysis of the data ([Inhibitor] vs. response, three parameters). […]
Human 20S Proteasome T-L Activity: A well was loaded with 69 µL of buffer (50 mM Tris, 1 mM EDTA, 100 mM NaCl, pH 7.5), 2 µL of fluorogenic substrate (Ac-RLR-AMC, 59 mM in DMSO), 2 µL of human 20S proteasome (2.6 µM in H2O) and either 2 µL of inhibitor (at varying concentrations in DMSO) or 2 µL of DMSO (control). […]

In experiment [3] the target is T3, human 20S proteasome PGPH-L activity (Homo sapiens, UniProt P28072).
T3 construct: human RBC proteasome was purchased from South Bay Bio; purchased South Bay Bio; host or cells: human red blood cells
As to the kind of experiment: Fluorometric kinetic enzyme assay, 20S proteasome PGPH-L activity (Cbz-LLE-AMC). On the procedure: as §1, §2, §3

The next experiment addresses T4, m-calpain (Sus scrofa, UniProt P35750).
T4 construct: erythrocytes calpain-1 were purchased from Millipore; purchased Millipore; host or cells: porcine erythrocytes
T4 sequence (P35750 1-714): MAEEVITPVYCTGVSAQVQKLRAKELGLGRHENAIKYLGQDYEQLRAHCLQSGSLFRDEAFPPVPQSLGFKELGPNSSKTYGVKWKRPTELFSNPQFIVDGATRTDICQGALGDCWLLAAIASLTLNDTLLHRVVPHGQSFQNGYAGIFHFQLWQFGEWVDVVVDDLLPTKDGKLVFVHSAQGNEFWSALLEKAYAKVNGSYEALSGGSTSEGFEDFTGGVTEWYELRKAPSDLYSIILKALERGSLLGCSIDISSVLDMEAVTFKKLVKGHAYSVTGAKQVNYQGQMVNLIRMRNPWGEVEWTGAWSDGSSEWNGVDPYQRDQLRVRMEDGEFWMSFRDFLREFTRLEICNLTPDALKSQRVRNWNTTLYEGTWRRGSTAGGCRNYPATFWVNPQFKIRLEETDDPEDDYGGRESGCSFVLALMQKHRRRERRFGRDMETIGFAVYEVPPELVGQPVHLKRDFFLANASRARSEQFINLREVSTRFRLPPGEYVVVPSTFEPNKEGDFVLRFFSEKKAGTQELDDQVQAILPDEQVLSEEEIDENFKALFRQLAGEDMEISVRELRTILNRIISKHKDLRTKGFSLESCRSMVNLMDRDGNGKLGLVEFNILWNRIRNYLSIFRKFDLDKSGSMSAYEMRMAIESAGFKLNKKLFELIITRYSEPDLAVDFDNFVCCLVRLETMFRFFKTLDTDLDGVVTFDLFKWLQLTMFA
T4 sequence (P04574 1-266 partner): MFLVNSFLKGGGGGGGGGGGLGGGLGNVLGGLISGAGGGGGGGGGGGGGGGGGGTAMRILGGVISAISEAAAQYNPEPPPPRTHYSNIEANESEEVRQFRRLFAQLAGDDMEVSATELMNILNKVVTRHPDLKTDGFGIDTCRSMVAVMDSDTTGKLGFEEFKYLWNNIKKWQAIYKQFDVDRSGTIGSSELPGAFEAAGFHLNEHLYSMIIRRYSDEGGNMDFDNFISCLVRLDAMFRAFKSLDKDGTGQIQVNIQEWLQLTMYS
The experiment is described as follows: Fluorometric kinetic enzyme assay, m-calpain (Suc-LLVY-AMC).

Experiment [4] has as its target T5, human 20S proteasome ChT-L activity (Homo sapiens, UniProt P28074).
T5 construct: human RBC proteasome was purchased from South Bay Bio; purchased South Bay Bio; host or cells: human red blood cells
As to the kind of experiment: Fluorometric kinetic enzyme assay, 20S proteasome ChT-L activity (Suc-LLVY-AMC). Conditions: for IC50: constitutive human 20S proteasome, Suc-LLVY-AMC, 37 C, 10 min. On the procedure: as §1, §2
The inhibitory potency and selectivity of the final compounds were tested using in vitro fluorescent enzyme kinetics. The enzyme assays used the fluorogenic substrate Suc-Leu-Leu-Val-Tyr-AMC (Suc-LLVY-AMC) and either the human 20S proteasome or alternate proteases chymotrypsin, m-calpain and cathepsin B. For cathepsin B, Cbz-Arg-Arg-AMC was used as the fluorogenic substrate. Kinetic enzyme assays were carried out on a fluorescent 96-well plate reader and AMC-substrate hydrolysis was measured at 353 nm excitation and 442 nm emission. Wells with inhibitor and wells with control solution were run in tandem. Vi and v0 were calculated from the slope of the measured relative fluorescent units (RFUs) graphed against time for inhibitor and control wells, respectively. Values for vi /v0 were plotted as a function of inhibitor concentration with GraphPad Prism and IC50 values were calculated from a nonlinear regression analysis of the data ([Inhibitor] vs. response, three parameters).
Human 20S Proteasome ChT-L Activity: A well was loaded with 86 µL of buffer (20 mM HEPES, 0.5 mM EDTA, 0.037% SDS, pH 7.8), 2 µL of fluorogenic substrate (Suc-LLVY-AMC, 5 mM in DMSO), 20 µL of human 20S proteasome (0.34 µM in H2O) and either 2 µL of inhibitor (at varying concentrations in DMSO) or 2 µL of DMSO (control). The fluorescent signal of the cleaved AMC chromophore was measured in RFUs at 37 °C over a span of 10 minutes with measurements taken every 20 seconds. […]

The target in another experiment is T6, chymotrypsin (Bos taurus, UniProt P00766).
T6 construct: chymotrypsin was purchased from Sigma Aldrich; purchased Sigma Aldrich; host or cells: bovine pancreas
As to the kind of experiment: Fluorometric kinetic enzyme assay, chymotrypsin (Suc-LLVY-AMC).

[5] abbreviates: human liver enzyme, Cbz-Arg-Arg-AMC, pH 6.0, N.I. = no inhibition at 130 μM, read-out: IC50 Cathepsin B.
[6] abbreviates: human 20S proteasome, Ac-RLR-AMC, N.I. = no inhibition at 130 μM, read-out: IC50 20S Proteasome T-L Activity.
The mark [7] stands for this setting: human 20S proteasome, Cbz-LLE-AMC, N.I. = no inhibition at 130 μM, read-out: IC50 20S Proteasome PGPH-L Activity.
Where [8] appears, read: Suc-LLVY-AMC, N.I. = no inhibition at 130 μM, read-out: IC50 m-Calpain.
Where [9] appears, read: Suc-LLVY-AMC, N.I. = no inhibition at 130 μM, read-out: IC50 Chymotrypsin.

Where two headings read alike, the source gives them in different places.

As for `CC(=O)N[C@H]1Cc2ccc([N+](=O)[O-])c(c2)Oc2ccc3c(c2)C(C[C@@H](C(=O)N[C@@H](CC(C)C)C(N)=O)NC(=O)[C@H](CC(C)C)NC1=O)C(=O)N3` (stereo partly drawn) [compound 12], the 50% inhibitory concentration (IC50) in experiment [1] (setting [5]) was > 130 µM; in experiment [2] (setting [6]), 46.1 ± 3.1 µM; in experiment [3] (setting [7]), > 130 µM; on m-calpain (setting [8]) it was > 130 µM; in experiment [4] it was 25 ± 1 µM; on chymotrypsin (setting [9]) it was > 130 µM. Further, in experiment [4] (comparison among tested inhibitors), the “inhibitory potency for the proteasome, in words” value was “least potent inhibitor”.

For `CC(=O)N[C@@H](Cc1ccc([N+](=O)[O-])c(F)c1)C(=O)N[C@@H](CC(C)C)C(=O)N[C@@H](CC1C(=O)Nc2ccc(O)cc21)C(=O)N[C@@H](CC(C)C)C(=O)[C@@]1(C)CO1` (stereo partly drawn) [compound 6], the IC50 in experiment [1] was > 130 µM; in experiment [2], > 130 µM; in experiment [3], > 130 µM; at m-calpain it was > 130 µM; in experiment [4] it was 1 ± 0.1 µM; at chymotrypsin it was > 130 µM. In addition, in experiment [4] (linear analogue versus macrocyclic 5), the “fold lower potency (ChT-L) than macrocycle 5” value came to 4 fold.

With `CC(=O)N[C@H]1Cc2ccc([N+](=O)[O-])c(c2)Oc2ccc3c(c2)C(C[C@@H](C(=O)N[C@@H](CC(C)C)C(=O)[C@@]2(C)CO2)NC(=O)[C@H](CC(C)C)NC1=O)C(=O)N3` (stereo partly drawn) [compound 5], in experiment [1], the “inhibition of cathepsin B, in words” value is on record as “not found to have any cross-reactivity”. The IC50 was > 130 µM in experiment [1] (setting [5]); > 130 µM in experiment [2] (setting [6]); 52.5 ± 16.6 µM in experiment [3] (setting [7]); > 130 µM at m-calpain (setting [8]); 0.19 ± 0.02 µM in experiment [4]; > 130 µM on chymotrypsin (setting [9]). Also, the “inhibition of T-L activity, in words” value in experiment [2] is listed as “does not significantly inhibit”. The “inhibition of PGPH-L activity, in words” value in experiment [3] is “does not significantly inhibit”. The “inhibition of m-calpain, in words” value against m-calpain is “not found to have any cross-reactivity”. In addition, the “inhibition of chymotrypsin, in words” value on chymotrypsin is recorded as “not found to have any cross-reactivity”.

Regarding `CC(=O)N[C@H]1Cc2ccc([N+](=O)[O-])c(c2)Oc2ccc(cc2)C[C@@H](C(=O)N[C@@H](CC(C)C)C(=O)[C@@]2(C)CO2)NC(=O)[C@H](CC(C)C)NC1=O` [15a], the IC50 is > 130 µM in experiment [1] (setting [5]); > 130 µM in experiment [2] (setting [6]); > 130 µM in experiment [3] (setting [7]); > 130 µM at m-calpain (setting [8]); 0.55 ± 0.09 µM in experiment [4]; > 130 µM on chymotrypsin (setting [9]).

With `CC(C)C[C@@H](C=O)NC(=O)[C@@H]1Cc2ccc(cc2)Oc2cc(ccc2[N+](=O)[O-])C[C@H](NC(=O)OCc2ccccc2)C(=O)N[C@@H](CC(C)C)C(=O)N1` [compound 16, reference compound], in experiment [1], the “inhibition of cathepsin B, in words” value is “inhibits”. Also, the IC50 in experiment [1] (setting [5]) was 3.1 ± 1 µM; in experiment [2] (setting [6]), > 130 µM; in experiment [3] (setting [7]), 7.51 ± 2.32 µM; on m-calpain (setting [8]), 2 ± 0.3 µM; in experiment [4], 0.24 ± 0.06 µM; at chymotrypsin (setting [9]), > 130 µM. Also, the “inhibition of m-calpain, in words” value at m-calpain is “inhibits”.

On to `CC(C)C[C@H](NC(=O)[C@H](CCc1ccccc1)NC(=O)CN1CCOCC1)C(=O)N[C@@H](Cc1ccccc1)C(=O)N[C@@H](CC(C)C)C(=O)[C@@]1(C)CO1` [carfilzomib, reference compound], for which the IC50 (in experiment [1] (setting [5]); at m-calpain (setting [8]); on chymotrypsin (setting [9])) was > 130 µM each time.

As for `CC(=O)N[C@H]1Cc2ccc([N+](=O)[O-])c(c2)Oc2ccc(cc2)CC[C@@H](C(=O)N[C@@H](CC(C)C)C(=O)[C@@]2(C)CO2)NC(=O)[C@H](CC(C)C)NC1=O` [15b], the half-inhibitory concentration (IC50) in experiment [1] (setting [5]) was > 130 µM; in experiment [2] (setting [6]) it was > 130 µM; in experiment [3] (setting [7]), > 130 µM; on m-calpain (setting [8]), > 130 µM; in experiment [4], 2.9 ± 0.42 µM; on chymotrypsin (setting [9]), > 130 µM.
